Test results published in patent EP0867722A2, “Method for measuring interaction between sugar and target” (TAKARA SHUZO CO. LTD., priority 1997, dated 1998).

Columns and labels:
[1] = Photostability of labeling fluorophores under white fluorescent lamp (residual fluorescence); assay type: physicochemical; conditions: 1 µM in 10 mM Tris-HCl buffer, pH 7.5, 25°C, white fluorescent lamp about 4000 lux, 16 hours; ratio of exposed solution to shaded solution
Excerpt: For the measurement of photostability, therefore, such labeling fluorophores are used. The following seven labeling fluorophores were selected. • 1. 2-Aminopyridine (AP) (Nacalai Tesque Inc.) • 2. […] 8-Amino-2-naphthol (AN) (Aldrich Chemical Company, Inc.) • 4. 5-((5-aminopentyl)thioureidyl)fluorescein (AF) (Molecular Probes Inc.) • 5. 5-Dimethylaminonapnthalene-1-(N-(2-minoethyl))sulfone (AD) (Molecular Probes Inc.) • 6. 2-Aminobenzamide (AB) (Oxford GlycoSystems Ltd.) • 7. 8-Amino-naphthalene-1,3,6-trisulfonic acid (ANTS) (Molecular Probes Inc.)
Each of the above reagents was dissolved in 10 mM Tris-HCl buffer, pH 7.5, to a concentration of 1 µM, and 1 ml of each solution was placed in a test tube of hard glass (size: diameter, 12 mm and length, 120mm) and allowed to stand at 25°C under a white fluorescent lamp. At this time, the illumination intensity in the vicinity of each solution was measured by an illumination photometer to be about 4000 lux. For controls, test tubes containing the same solutions were prepared, but they were shaded with aluminum foil and stored under the same conditions as described above. After 16 hours, the fluorescence of each solution was measured by fluorescent spectrophotometer RF-540 (Shimazu Corp.). The excitation and emission wavelengths used in the measurement of fluorescence of the solutions of each fluorescent substance, and residual fluorescence (i.e., ratio of the relative degree of fluorescence for the exposed solution to the relative degree of fluorescence for the shaded solution) are shown in Table 1.

concanavalin A = biological target: T1, concanavalin A (Canavalia ensiformis, UniProt P02866); experiment: Fluorescence polarization measurement of interaction between fluorescence-labeled sugar fractions and concanavalin A; assay type: binding; conditions: 1 µM labeled sugar or fluorophore; no maximum means EC50 impossible to calculate
T1 construct: purchased Honen Oil Co., Ltd
Excerpt: The interaction between the sugar molecules and the target molecules to be measured is not always highly specific as compared with antigen-antibody reaction. To find the most suitable combination, the degree of interaction should be evaluated. As an index to show the degree of interaction, for example, EC50 can be used, which is a half value of the minimum target concentration giving the maximum degree of fluorescence polarization.
BEACON™ 2000 (PanVera Corp.) was modified so as to be adapted for the detection of pyridylamino-labeled substances. […]
Seven fractions of fluorescence-labeled sugars prepared in the above item 1 were freeze-dried to remove water, acetonitrile and eluents-derived salts, and then used for the subsequent measurement of an interaction. The measurement of the degree of fluorescence polarization was conducted as follows. […]
In each of the eight solutions of concanavalin A in various concentrations, each fluorescence-labeled sugar fraction was dissolved to a concentration of 1 µM. After the dissolution, the solutions were allowed to stand at room temperature for 30 minutes, and the reaction mixtures thus obtained were used each in a volume of 100 µl to measure the degree of fluorescence polarization with a modified apparatus of the BEACON™ system as described in the above item 2, which was equipped with filters for excitation at 310 nm and emission at 390 nm. […]

Row | SMILES | Residual fluorescence (%) [1] [%] | maximum in the degree of fluorescence polarization over the range of concentration of concanavalin A (concanavalin A)
1 | NC(=O)c1ccccc1N [AB, 2-Aminobenzamide] | 96 | 
2 | Nc1cc(S(=O)(=O)O)cc2cc(S(=O)(=O)O)cc(S(=O)(=O)O)c12 [ANTS, 8-Amino-naphthalene-1,3,6-trisulfonic acid] | 96 | 
3 | Nc1ccccn1 [AP, 2-Aminopyridine] | 98 | no maximum

More lines, main results first:

Row | Residual fluorescence (%) [1] [%] | SMILES | maximum in the degree of fluorescence polarization over the range of concentration of concanavalin A (concanavalin A)
4 | 97 | CN(C)c1cccc2c(S(=O)(=O)NCCN)cccc12 [AD, 5-Dimethylaminonapnthalene-1-(N-(2-minoethyl))sulfone] | 
5 | 17 | NCCCCCNC(=S)Nc1ccc2c(c1)C(=O)OC21c2ccc(O)cc2Oc2cc(O)ccc21 [AF, 5-((5-aminopentyl)thioureidyl)fluorescein] | 
6 | 84 | Nc1cccc2ccc(O)cc12 [AN, 8-Amino-2-naphthol] | 
